In PubChem BioAssay (NCI):
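These data come from cells grown in 96-well plates and exposed to compound for 48 hours at five concentrations. GI50 = concentration required for 50% inhibition of growth. TGI: total growth inhibition.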

Assays:
Assay in all cases: NCI-60 cell line screen, 48 h
HL-60(TB) leukemia = tested on: HL-60(TB) leukemia
HS 578T breast = tested on: HS 578T breast
HT29 colon = tested on: HT29 colon
K-562 leukemia = tested on: K-562 leukemia
MALME-3M melanoma = tested on: MALME-3M melanoma
NCI-H23 lung = tested on: NCI-H23 lung
SF-539 CNS = tested on: SF-539 CNS
SK-OV-3 ovarian = tested on: SK-OV-3 ovarian
SNB-75 CNS = tested on: SNB-75 CNS
TK-10 renal = tested on: TK-10 renal

`O=S(=O)(c1cc(Cl)ccc1Cl)n1ccnc1` gave a TGI (HL-60(TB) leukemia) of 88 µM, a TGI (HS 578T breast) of over 100 µM and a TGI (HT29 colon) of over 100 µM. For the same compound, the TGI (K-562 leukemia) was over 100 µM, the TGI (MALME-3M melanoma) was over 100 µM and the TGI (NCI-H23 lung) was 52.8 µM. It also gave a TGI (SF-539 CNS) of 39.3 µM, a TGI (SK-OV-3 ovarian) of over 100 µM and a TGI (SNB-75 CNS) of over 100 µM. The TGI (TK-10 renal) was over 100 µM.
With `CCn1c2ccc(C(=O)CCCN3CCCCC3)cc2c2cc(C(=O)CCCN3CCCCC3)ccc21` the TGI (HL-60(TB) leukemia) was over 100 µM, the TGI (HS 578T breast) was 7.06 µM and the TGI (HT29 colon) was 4.2 µM. It also gave a TGI (K-562 leukemia) of over 22.6 µM, a TGI (MALME-3M melanoma) of 18.5 µM and a TGI (NCI-H23 lung) of 4.49 µM. It also gave a TGI (SF-539 CNS) of 3.37 µM, a TGI (SK-OV-3 ovarian) of 13.4 µM and a TGI (SNB-75 CNS) of 8.26 µM. The TGI (TK-10 renal) was 15.9 µM.
Work on `COc1ccc(C2C3=C(COC3=O)Oc3cc4c(cc32)OCO4)c(OC)c1` (stereo not drawn) yielded a TGI (HL-60(TB) leukemia) of 39.9 µM, a TGI (HS 578T breast) of 98.3 µM and a TGI (HT29 colon) of over 100 µM. For the same compound, the TGI (K-562 leukemia) was 87.3 µM, the TGI (MALME-3M melanoma) was over 100 µM and the TGI (NCI-H23 lung) was over 100 µM. It also gave a TGI (SF-539 CNS) of 43.6 µM, a TGI (SK-OV-3 ovarian) of 93.1 µM and a TGI (SNB-75 CNS) of 46.8 µM. For the same compound, the TGI (TK-10 renal) was over 100 µM.
`CC1CCC2(NC1)OC1CC3C4CC=C5CC(OC6OC(CO)C(OC7OC(C)C(O)C(O)C7O)C(O)C6OC6OC(C)C(O)C(O)C6O)CCC5(C)C4CCC3(C)C1C2C` (stereo not drawn) showed a TGI (HL-60(TB) leukemia) of over 36 µM, a TGI (HS 578T breast) of 15.6 µM and a TGI (HT29 colon) of 15.6 µM. For the same compound, the TGI (K-562 leukemia) was 28.7 µM, the TGI (MALME-3M melanoma) was 9.23 µM and the TGI (NCI-H23 lung) was 27.1 µM. It also gave a TGI (SF-539 CNS) of 8.75 µM, a TGI (SK-OV-3 ovarian) of 19.5 µM and a TGI (SNB-75 CNS) of 5.87 µM. The TGI (TK-10 renal) was 15.1 µM.
`O=[N+]([O-])c1ccc(NC(=S)N=Nc2c(O)[nH]c3ccc([N+](=O)[O-])cc23)cc1` showed a TGI (HL-60(TB) leukemia) of 73.1 µM, a TGI (HS 578T breast) of over 100 µM and a TGI (HT29 colon) of 65.6 µM. It also gave a TGI (K-562 leukemia) of over 100 µM, a TGI (MALME-3M melanoma) of 55.5 µM and a TGI (NCI-H23 lung) of 41.1 µM. The TGI (SF-539 CNS) was over 100 µM, the TGI (SK-OV-3 ovarian) was 41.8 µM and the TGI (SNB-75 CNS) was 42.8 µM. It also gave a TGI (TK-10 renal) of 56.7 µM.
`CCOc1ccc(Nc2nc(N)nc(N)c2N)cc1` was tested, and the TGI (HL-60(TB) leukemia) was over 100 µM, the TGI (HS 578T breast) was 45.7 µM and the TGI (HT29 colon) was 33.3 µM. It also gave a TGI (K-562 leukemia) of 50.1 µM, a TGI (MALME-3M melanoma) of 66.2 µM and a TGI (NCI-H23 lung) of over 100 µM. For the same compound, the TGI (SF-539 CNS) was 46.3 µM, the TGI (SK-OV-3 ovarian) was over 100 µM and the TGI (SNB-75 CNS) was 70.5 µM. The TGI (TK-10 renal) was over 100 µM.
`COC(=O)C1CCc2sc3ncnc(Nc4cn[nH]c4C(=O)Nc4ccc(CN5CCN(C)CC5)cc4)c3c21` (stereo not drawn) was tested, and the GI50 (HL-60(TB) leukemia) was 1.68 µM, the TGI (HL-60(TB) leukemia) was 3.87 µM and the GI50 (HS 578T breast) was 0.54 µM. It also gave a TGI (HS 578T breast) of 12.7 µM, a GI50 (HT29 colon) of 0.619 µM and a TGI (HT29 colon) of 2.91 µM. It also gave a GI50 (K-562 leukemia) of 0.254 µM, a TGI (K-562 leukemia) of 4.15 µM and a GI50 (MALME-3M melanoma) of 1.98 µM. For the same compound, the TGI (MALME-3M melanoma) was 3.78 µM, the GI50 (NCI-H23 lung) was 0.506 µM and the TGI (NCI-H23 lung) was 2.67 µM. It also gave a GI50 (SF-539 CNS) of 0.371 µM, a TGI (SF-539 CNS) of 1.49 µM and a GI50 (SK-OV-3 ovarian) of 0.132 µM. It also gave a TGI (SK-OV-3 ovarian) of over 100 µM, a GI50 (SNB-75 CNS) of 0.0684 µM and a TGI (SNB-75 CNS) of 2.87 µM. The GI50 (TK-10 renal) was 2.31 µM and the TGI (TK-10 renal) was 17.8 µM.
`COc1ccc(-c2c3c(n(C4OC(CO)C(O)C(O)C4O)c(=S)c2C#N)CCC3)cc1` (stereo not drawn) was tested, and the TGI (HL-60(TB) leukemia) was over 100 µM, the TGI (HS 578T breast) was over 100 µM and the TGI (HT29 colon) was over 100 µM. For the same compound, the TGI (K-562 leukemia) was over 100 µM, the TGI (MALME-3M melanoma) was over 100 µM and the TGI (NCI-H23 lung) was over 100 µM. The TGI (SF-539 CNS) was over 100 µM, the TGI (SK-OV-3 ovarian) was over 100 µM and the TGI (SNB-75 CNS) was over 100 µM. The TGI (TK-10 renal) was over 100 µM.
For `COc1ccc2nc(/C(N)=C\C#N)ccc2c1`, the TGI (HL-60(TB) leukemia) was 46.5 µM, the TGI (HS 578T breast) was over 100 µM and the TGI (HT29 colon) was over 100 µM. It also gave a TGI (K-562 leukemia) of over 100 µM, a TGI (MALME-3M melanoma) of over 100 µM and a TGI (NCI-H23 lung) of over 100 µM. For the same compound, the TGI (SF-539 CNS) was over 100 µM, the TGI (SNB-75 CNS) was over 100 µM and the TGI (TK-10 renal) was over 100 µM.
Compound `CC(=O)OCC1OC(n2c(-c3ccccc3)c(N=Nc3ccccc3)c(C)c(C#N)c2=S)C(OC(C)=O)C(OC(C)=O)C1OC(C)=O` (stereo not drawn) has a TGI (HL-60(TB) leukemia) of over 100 µM, a TGI (HS 578T breast) of over 100 µM and a TGI (HT29 colon) of over 100 µM. The TGI (K-562 leukemia) was over 100 µM, the TGI (MALME-3M melanoma) was over 100 µM and the TGI (NCI-H23 lung) was over 100 µM. The TGI (SF-539 CNS) was over 100 µM, the TGI (SK-OV-3 ovarian) was over 100 µM and the TGI (SNB-75 CNS) was over 100 µM. For the same compound, the TGI (TK-10 renal) was over 100 µM.
`O=c1nc2c(c(-c3ccc(Br)cc3)[nH]1)COC/C2=C\c1ccc(Br)cc1` showed a TGI (HL-60(TB) leukemia) of over 50 µM, a TGI (HS 578T breast) of over 50 µM and a TGI (HT29 colon) of over 50 µM. The TGI (K-562 leukemia) was over 50 µM, the TGI (MALME-3M melanoma) was over 50 µM and the TGI (NCI-H23 lung) was over 50 µM. For the same compound, the TGI (SF-539 CNS) was over 50 µM, the TGI (SK-OV-3 ovarian) was over 50 µM and the TGI (SNB-75 CNS) was over 50 µM. It also gave a TGI (TK-10 renal) of over 50 µM.
In the case of `OCCOCn1nncc1Cn1ncc2c(SCc3ccccc3)ncnc21`, the TGI (HL-60(TB) leukemia) is reported as 53.5 µM, the TGI (HS 578T breast) is reported as over 100 µM and the TGI (HT29 colon) is reported as over 100 µM. It also gave a TGI (K-562 leukemia) of over 100 µM, a TGI (MALME-3M melanoma) of over 100 µM and a TGI (NCI-H23 lung) of over 100 µM. The TGI (SF-539 CNS) was over 100 µM, the TGI (SK-OV-3 ovarian) was over 100 µM and the TGI (SNB-75 CNS) was over 100 µM. The TGI (TK-10 renal) was over 100 µM.
`Nc1nc(Cl)cc(NCC2(O)CC2)n1` gave a TGI (HL-60(TB) leukemia) of over 100 µM, a TGI (HS 578T breast) of over 100 µM and a TGI (HT29 colon) of over 100 µM. For the same compound, the TGI (K-562 leukemia) was over 100 µM, the TGI (MALME-3M melanoma) was over 100 µM and the TGI (NCI-H23 lung) was over 100 µM. It also gave a TGI (SF-539 CNS) of over 100 µM, a TGI (SK-OV-3 ovarian) of over 100 µM and a TGI (SNB-75 CNS) of over 100 µM. It also gave a TGI (TK-10 renal) of over 100 µM.
In the case of `CS(=O)(=O)Nc1ccc2c(c1)N(S(C)(=O)=O)CC2CCl` (stereo not drawn), the TGI (HL-60(TB) leukemia) is reported as over 100 µM, the TGI (HS 578T breast) is reported as over 100 µM and the TGI (HT29 colon) is reported as over 100 µM. It also gave a TGI (K-562 leukemia) of over 100 µM, a TGI (MALME-3M melanoma) of over 100 µM and a TGI (NCI-H23 lung) of over 100 µM. For the same compound, the TGI (SF-539 CNS) was over 100 µM, the TGI (SNB-75 CNS) was over 100 µM and the TGI (TK-10 renal) was over 100 µM.
`COc1ccc(/C=c2\s/c(=C3/SC(=S)N(c4ccccc4)C3=O)n(-c3ccccc3)c2=O)cc1` showed a TGI (HL-60(TB) leukemia) of over 100 µM, a TGI (HS 578T breast) of 74 µM and a TGI (HT29 colon) of over 100 µM. For the same compound, the TGI (K-562 leukemia) was over 100 µM, the TGI (MALME-3M melanoma) was over 100 µM and the TGI (NCI-H23 lung) was over 100 µM. The TGI (SF-539 CNS) was over 100 µM, the TGI (SK-OV-3 ovarian) was 45 µM and the TGI (SNB-75 CNS) was 21.4 µM. For the same compound, the TGI (TK-10 renal) was 59.2 µM.
Work on `C[C@]12CCC(=O)[C@@H](CCC3=CC(=O)C=CC3=O)[C@@H]1CCC2=O` yielded a TGI (HL-60(TB) leukemia) of 39.1 µM, a TGI (HS 578T breast) of 43.6 µM and a TGI (HT29 colon) of 82.2 µM. It also gave a TGI (K-562 leukemia) of over 100 µM, a TGI (MALME-3M melanoma) of 37.9 µM and a TGI (NCI-H23 lung) of 38.2 µM. It also gave a TGI (SF-539 CNS) of 35.7 µM, a TGI (SK-OV-3 ovarian) of 63.9 µM and a TGI (SNB-75 CNS) of 25.8 µM. For the same compound, the TGI (TK-10 renal) was 30.4 µM.
`COc1cc(CC(C)NC(C)=O)cc(OC)c1` (stereo not drawn) gave a TGI (HL-60(TB) leukemia) of over 100 µM, a TGI (HS 578T breast) of over 100 µM and a TGI (HT29 colon) of over 100 µM. For the same compound, the TGI (K-562 leukemia) was over 100 µM, the TGI (MALME-3M melanoma) was over 100 µM and the TGI (NCI-H23 lung) was over 100 µM. The TGI (SF-539 CNS) was over 100 µM, the TGI (SK-OV-3 ovarian) was over 100 µM and the TGI (SNB-75 CNS) was over 100 µM. The TGI (TK-10 renal) was over 100 µM.
